Experimental data as given in US9061984B2 (University of Louisville Research Foundation, Inc., priority 2008, dated 2015).
In brackets after ≈: the same amount, converted by molar mass. Where two headings read alike, the source gives them in different places.

Legend:
3T3 cells = assay: Cell growth inhibition bioassay (sulforhodamine B); format: cell-based, mouse; conditions: Mus musculus, NIH3T3; 48 h, SRB; read-out: GI50 in indicated cell line: 3T3
In short: (§1)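 Cells were exposed to compound alongside matched solvent controls, then stained with sulforhodamine B. Percent growth inhibition was calculated from dye absorbance against the control.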

DU145 cells = assay: Cell growth inhibition bioassay (sulforhodamine B); format: cell-based, human; conditions: Homo sapiens, DU-145; 48 h, SRB; read-out: GI50 in indicated cell line: DU145
In short: (§2)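 SRB colorimetric read-out; % growth inhibition vs solvent control. Human lines: MCF-7 (breast adenocarcinoma), DU145 (prostate carcinoma), PC3 (prostate adenocarcinoma), H460 (large cell lung cancer).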

H460 cells = assay: Cell growth inhibition bioassay (sulforhodamine B); format: cell-based, human; conditions: Homo sapiens, NCI-H460; 48 h, SRB; read-out: GI50 in indicated cell line: H460
In short: as §2

HT-29 cells = assay: Cell growth inhibition bioassay (sulforhodamine B); format: cell-based, human; conditions: Homo sapiens, HT-29; 48 h, SRB; read-out: GI50 in indicated cell line: HT-29
In short: as §1

K562 cells = assay: Cell growth inhibition bioassay (sulforhodamine B); format: cell-based, human; conditions: Homo sapiens, K562; 48 h, SRB; read-out: GI50 in indicated cell line: K562
In short: as §1

M-14 cells = assay: Cell growth inhibition bioassay (sulforhodamine B); format: cell-based, human; conditions: Homo sapiens, M14; 48 h, SRB; read-out: GI50 in indicated cell line: M-14
In short: as §1

MCF-7 cells = assay: Cell growth inhibition bioassay (sulforhodamine B); format: cell-based, human; conditions: Homo sapiens, MCF7; 48 h, SRB; read-out: GI50 in indicated cell line: MCF-7
In short: as §2

VERO cells = assay: Cell growth inhibition bioassay (sulforhodamine B); format: cell-based, African Green Monkey; conditions: Chlorocebus sabaeus, Vero; 48 h, SRB; read-out: GI50 in indicated cell line: VERO
In short: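 Cytotoxicity is read by sulforhodamine B colorimetry following the Skehan protocol; values are growth inhibition relative to solvent-only wells.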

[1] = tested on: Trypanosoma cruzi (Tulahuen C4); assay: In vitro anti-T. cruzi activity (β-galactosidase CPRG colorimetric assay in VERO monolayer); format: cell-based; conditions: for Selectivity Index Lab B: IC50, VERO/IC50, T. cruzi; for IC50: Trypanosoma cruzi, TULAHUEN, Vero
M. tuberculosis H37Rv = assay: Conventional aerobic (MABA) culture assay, luminescence MIC; format: cell-based, Mycobacterium tuberculosis; conditions: for MIC: Mycobacterium tuberculosis, 168 h, aerobic, 7 days, H37Rv; for Selectivity Index H37Rv: VERO vs MABA MIC
[2] = Toxicity to peritoneal macrophages (Trypan Blue count); format: cell-based, BALB/C mouse; conditions: BALB/C, mouse, Cytotoxicity Macrophages IC50
[3] = tested on: axenic amastigotes of L. amazonensis (strain MHOM/BR/76/LTB-012); conditions: Table 8b
[4] = Cytotoxicity VERO cell (Table 6); conditions: African green monkey, VERO cells
[5] = tested on: axenic amastigotes of L. amazonensis (strain MHOM/BR/76/LTB-012); assay: microbe, parasite or virus in culture; conditions: Leishmania amazonensis
[6] = Cytotoxicity on VERO cells (MTT), anti-T. cruzi study; conditions: African green monkey, VERO cells, Cytotoxicity VERO Lab B, Lab B
L. amazonensis = conditions: intralesional, compounds 5 mg/kg/day, Glucantime 33 mg Sb(v)/kg/day; for Mean lesion wt (mg) (±SD): BALB/c mice n=10; for % Variation of lesion wt / % reduction of parasite burden in the lesion: vs control
L. braziliensis PER006 = assay: Activity against macrophages infected with Leishmania amastigotes; conditions: Leishmania braziliensis, Macrophage, read-out: IC50 L. braziliensis PER006
Protocol: (§3) A cloned line of Leishmania amazonensis(strain MHOM/BR/76/LTB-012) was used in all experiments. Axenically grown amastigote forms of L. amazonensis were maintained by weekly subpassages in MAA/20 medium (Sereno and Lemesre, Antimicrobial Agents and Chemotherapy 41, 972-976 (1997)) at 32±1° C. in 25 cm^2 tissue culture flasks. L. peruviana (strain MHOM/PE/LCA08) and L. braziliensis (strainMHOM/PE/PER006) were maintained in the promastigote stage in a biphasic medium (blood agar with 0.89% NaCl, pH 7.4) at 24° C., with sub-passage every 3 to 4 days. Promastigotes (5×10^6 parasites) were then transferred to 25 cm2 tissue culture flasks containing 5 ml of M199 medium supplemented with 10% foetal bovine serum (FBS), pH 7.4. After 4 days, exponential phase promastigotes were centrifuged for 10 minutes at 1500 g and 4° C. The supernatant was discarded and replaced by fresh M199 medium supplemented with 20% FBS, pH 5.5. Axenic amastigotes transformation was then induced by increasing the temperature to 34° C. and incubating for 96 h (Teixeira et al., Parasitology Research 88, 963-968 (2002)).
(§4) Extracted cells were immediately deposited on sterile 4×4 mm cover glasses and placed in each well of a 96-well plate. Plates were incubated for 24 h at 37° C., 5% CO2 to allow cell adhesion (Castillo et al, Journal of Ethnopharmacology 112, 410-414 (2007)). Pre-warmed complete M199 medium was used twice to remove non-adherent cells. A neutral red method (Fautz et al., Mutation Research 253, 173-179 (1991)) was employed to determine cell concentration. Approximately 7×10^4 viable cells were deposited in each well for adhesion.
(§5) Infection of macrophages by amastigotes was determined as follows. […] Twelve hours after infection, a solution of the compounds to be tested was added to the cultures at various concentrations and maintained at 37° C. in 5% CO2 for a further forty-eight hours more. The plates were fixed with methanol and stained with 10% Giemsa stain. The percentage of infected macrophages was determined microscopically at 100 times magnification. The number of intracellular amastigotes was determined in 300 cells. Following Delorenzi et al. Antimicrobial Agents and Chemotherapy, 45, 1349-1354 (2001)) the percentage of infection rate (% IR) of each culture was calculated as follows: % IR=100−(infection rate of the treated culture/infection rate of the untreated culture)×100.
(§6) All experiments were performed in triplicate. ANOVA was used to test for statistical significance of differences (Epi-Info, Statview student program). The total parasite burden was calculated as a mean number of amastigotes per cells multiplied by the number of infected macrophages.

L. peruviana LCA08 = assay: as above; conditions: Leishmania peruviana, Macrophage, read-out: IC50 L. peruviana LCA08
Protocol: as §3, §4, §5, §6

peritoneal macrophages = assay: Toxicity to peritoneal macrophages (Trypan Blue count); format: cell-based, BALB/C mouse; conditions: Mus musculus, Peritoneal macrophage, 48 h; Table 7; read-out: IC50 Macrophage
L. amazonensis Lma CL1 = assay: Activity against macrophages infected with Leishmania amastigotes; conditions: Leishmania amazonensis, Macrophage, 48 h, read-out: IC50 L. amazonensis Lma CL1
Protocol: as §3, §4, §5, §6

[7] = Lab A, read-out: T. cruzi IC50 Lab A
[8] = Lab B, read-out: T. cruzi IC50 Lab B
[9] = 72 h, read-out: IC50 L. amazonensis

SMILES | GI50 (3T3 cells) [µg/mL] | GI50 (DU145 cells) [µg/mL] | GI50 (H460 cells) [µg/mL] | GI50 (HT-29 cells) [µg/mL] | GI50 (K562 cells) [µg/mL] | GI50 (M-14 cells) [µg/mL] | GI50 (MCF-7 cells) [µg/mL] | GI50 (VERO cells) [µg/mL] | Selectivity Index Lab B ([1]; Lab B) | IC50 [1, 7] [µg/mL] | IC50 [1, 8] [µg/mL] | MIC (M. tuberculosis H37Rv) [µg/mL] | Selectivity Index H37Rv (M. tuberculosis H37Rv) | IC50 at 48 h [2] [µM] | Selectivity Index [3] | IC50 [4] [µg/mL] | IC50 ([5]; read-out: L. amazonensis IC50) [µM] | IC50 [6] [µg/mL] | IC50 (peritoneal macrophages) [µM] | IC50 [5, 9] [µM] | other results
Oc1ccc(/C=N\Nc2ncnc3sc4c(c23)CCCC4)cc1 [II-09] | 2.1 (≈ 6.47 µM) | 6.8 (≈ 21 µM) | 4.8 (≈ 14.8 µM) | 6.3 (≈ 19.4 µM) | 5.1 (≈ 15.7 µM) | 5.6 (≈ 17.3 µM) | 5.5 (≈ 17 µM) | 6.8 (≈ 21 µM) | 1.1 | 2.6 (≈ 8.01 µM) | 3.7 (≈ 11.4 µM) | 23.4 (≈ 72.1 µM) | 0.6 | 57.8 | 4.3 | 14.6 (≈ 45 µM) | 13.5 | 4 (≈ 12.3 µM) |  |  | 
COc1cccc(/C=N\Nc2ncnc3sc4c(c23)CCCC4)c1 [II-11] | 6 (≈ 17.7 µM) | 6 (≈ 17.7 µM) | 5.5 (≈ 16.3 µM) | 2.5 (≈ 7.39 µM) | 5.3 (≈ 15.7 µM) | 48.4 (≈ 143 µM) | 5 (≈ 14.8 µM) | 6.2 (≈ 18.3 µM) | 0.9 | 1.5 (≈ 4.43 µM) | 5.7 (≈ 16.8 µM) | 40.4 (≈ 119 µM) | 0.6 | 5.5 | 0.5 | 22.7 (≈ 67.1 µM) | 12.2 | 5 (≈ 14.8 µM) |  |  | 
CCc1ccc(/C=N\Nc2ncnc3sc4c(c23)CCCC4)cc1 [II-06] | 12.1 (≈ 36 µM) | 19.8 (≈ 58.8 µM) | 9.5 (≈ 28.2 µM) | 10.8 (≈ 32.1 µM) | 3.7 (≈ 11 µM) | 64 (≈ 190 µM) | 6.2 (≈ 18.4 µM) | 6.6 (≈ 19.6 µM) |  |  |  | > 100 |  | 50.9 | 9.6 |  | 5.3 | 4 (≈ 11.9 µM) |  |  | Mean lesion size (mm) (L. amazonensis; after 4 weeks treatment): 3.0 mm; Mean parasite quantification (per 10^6) in lesion per mg (±SD) (L. amazonensis; after 4 weeks treatment): 1.19 (±0.27) amastigotes (×10^6)/mg; Mean lesion wt (mg) (±SD) (L. amazonensis; after 4 weeks treatment): 70.9 (±9.9) mg; % Variation of lesion wt (L. amazonensis; after 4 weeks treatment): −17%; % reduction of parasite burden in the lesion (L. amazonensis; after 4 weeks treatment): 30%; Mean lesion size (mm) (L. amazonensis; after 7 weeks treatment): 4.7 mm; Mean parasite quantification (per 10^6) in lesion per mg (±SD) (L. amazonensis; after 7 weeks treatment): 1.46 (±0.30) amastigotes (×10^6)/mg; Mean lesion wt (mg) (±SD) (L. amazonensis; after 7 weeks treatment): 78.4 (±1.6) mg; % Variation of lesion wt (L. amazonensis; after 7 weeks treatment): 12%; % reduction of parasite burden in the lesion (L. amazonensis; after 7 weeks treatment): 2%; IC50 (L. braziliensis PER006): 3.5 µg/mL; IC50 (L. peruviana LCA08): 3.2 µg/mL
COc1ccc(/C=C/C(=O)c2c(O)cc(O)cc2OC)c(OC)c1 [Compound I-36, (2E)-1-(2,4-Dihydroxy-6-methoxyphenyl)-3-(2,4-dimethoxyphenyl)-2-propen-1-one] |  |  |  |  |  |  |  |  |  |  |  |  |  |  |  |  |  |  | > 300 | 6.4 | IC50 (L. amazonensis Lma CL1): 28.5 µM; IC50 (L. braziliensis PER006; 48 h): 237 µM; IC50 (L. peruviana LCA08; 48 h): 290 µM
Brc1ccccc1/C=N\Nc1ncnc2sc3c(c12)CCCC3 [II-31] | 4.3 (≈ 11.1 µM) | 2.8 (≈ 7.23 µM) | 3 (≈ 7.75 µM) | 3.1 (≈ 8 µM) | 1.2 (≈ 3.1 µM) | 6 (≈ 15.5 µM) | 1.7 (≈ 4.39 µM) | 2 (≈ 5.16 µM) | 0.8 | 0.8 (≈ 2.07 µM) | 3.6 (≈ 9.29 µM) | 9.4 (≈ 24.3 µM) | 0.8 | 2.9 | 5.8 | 7.7 (≈ 19.9 µM) | 0.5 | 3 (≈ 7.75 µM) |  |  | 
COc1cc(O)cc(O)c1C(=O)/C=C/c1ccco1 [Compound I-43, (2E)-1-(2,4-Dihydroxy-6-methoxyphenyl)-3-(2-furanyl)-2-propen-1-one] |  |  |  |  |  |  |  |  |  |  |  |  |  |  |  |  |  |  | 384 | 4.6 | IC50 (L. amazonensis Lma CL1): 17 µM; IC50 (L. braziliensis PER006; 48 h): 30.4 µM; IC50 (L. peruviana LCA08; 48 h): 34.2 µM
